From patent publication US20200369728A1, “PEPTIDOMIMETIC MACROCYCLES AND USES THEREOF” (Aileron Therapeutics, Inc., priority 2015, published 2020)
Bridge positions count the residues as written; N and C are the ends. Square brackets hold non-standard residues; d marks the D form. Peptide text beside a SMILES is read from it. Trp(6-Cl) = N[C@@H](Cc1c[nH]c2cc(Cl)ccc12)C(=O)O; R8 = C=CCCCCCC[C@@](C)(N)C(=O)O; hLeu = CC(C)CC[C@H](N)C(=O)O; S5 = C=CCCC[C@](C)(N)C(=O)O

Assays:
[1] = test system: SJSA-1 cells; test: Cell lysis by peptidomimetic macrocycles (LDH release); format: cell-based; settings: SJSA-1, 1 h
Procedure, shortened: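 SJSA-1 cells plated the day before, switched to RPMI with 1% FBS, then exposed 1 h at 37 °C to macrocycle at final 50 μM to 6.25 μM in 0.5% DMSO. LDH released into the supernatant was measured by kit. Controls: 0.5% DMSO (non-lytic), 10 μM melittin and 1% Triton X-100 (lytic).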

[2] = test system: Caspase 3; test: Caspase 3 detection assay in SJSA1 cells; format: cell-based; settings: SJSA1, 48 h, Caspase 3 activation over DMSO-treated cells
[3] = test system: RKO; test: Cell viability assay (MTT), RKO; settings: read-out: RKO EC50 (72 h)

SMILES | 6.25 μM % Lysed cells (1 h LDH) [1] [%] | 25 μM % Lysed cells (1 h LDH) [1] [%] | 50 μM % Lysed cells (1 h LDH) [1] [%] | caspase 0.3 μM [2] | caspase 3 μM [2] | caspase 10 μM [2] | caspase 30 μM [2] | EC50 [3] [µM] | caspase 1 μM [2]
CC[C@H](C)[C@H](NC(=O)[C@H](C)NC(=O)[C@H](C)NC(=O)[C@]1(C)CCCC=CCCCCCC[C@@](C)(NC(=O)[C@H](Cc2ccccc2)NC(=O)[C@@H](NC(=O)[C@H](CCC(=O)O)NC(C)=O)[C@@H](C)O)C(=O)N[C@@H](CCC(=O)O)C(=O)N[C@@H](Cc2c[nH]cn2)C(=O)N[C@@H](Cc2c[nH]c3ccccc23)C(=O)N[C@@H](C)C(=O)N[C@@H](CCC(N)=O)C(=O)N[C@@H](CC(C)C)C(=O)N1)C(=O)N[C@H](C)C(N)=O (single isomer, unassigned) [compound 175] | 3 | 1 | 0 | 1 | 5 | 12 | 21 | > 30 | 
CC(=O)N[C@@H](C)C(=O)N[C@@H](C)C(=O)N[C@@H](CC(C)C)C(=O)N[C@H](C(=O)N[C@@H](Cc1ccccc1)C(=O)N[C@]1(C)CCCCCCC=CCCC[C@@](C)(C(=O)N[C@@H](CO)C(=O)N[C@@H](C)C(=O)N[C@@H](C)C(=O)N[C@@H](C)C(=O)N[C@H](C)C(N)=O)NC(=O)[C@H](CC2CCC2)NC(=O)[C@H](CCC(N)=O)NC(=O)[C@H](C)NC(=O)[C@H](Cc2c[nH]c3ccccc23)NC(=O)[C@H](Cc2ccc(O)cc2)NC(=O)[C@H](CCC(=O)O)NC1=O)[C@@H](C)O (single isomer, unassigned) [compound 359] | 0 | 0 | 0 | 3 | 11 | 13 | 23 | 15 to 30 | 9
CC(=O)N[C@@H](CC(C)C)C(=O)N[C@H](C(=O)N[C@@H](Cc1ccccc1)C(=O)N[C@]1(C)CCCCCCC=CCCC[C@@](C)(C(=O)N[C@@H](CO)C(=O)N[C@@H](C)C(=O)N[C@@H](C)C(=O)N[C@H](C)C(N)=O)NC(=O)[C@H](CC2CCC2)NC(=O)[C@H](CCC(N)=O)NC(=O)[C@H](C)NC(=O)[C@H](Cc2c[nH]c3ccccc23)NC(=O)[C@H](Cc2ccc(O)cc2)NC(=O)[C@H](CCC(=O)O)NC1=O)[C@@H](C)O (single isomer, unassigned) [compound 353] | 0 | 0 | 0 | 1 | 5 | 7 | 30 | 15 to 30 | 2
CC(=O)N[C@@H](CCC(=O)O)C(=O)N[C@H](C(=O)N[C@@H](Cc1ccccc1)C(=O)N[C@]1(C)CCCCCCC=CCCC[C@@](C)(C(=O)N[C@@H](CO)C(=O)N[C@H](C(=O)N[C@@H](C)C(N)=O)C(C)C)NC(=O)[C@H](CC(C)C)NC(=O)[C@H](CCC(N)=O)NC(=O)[C@H](C)NC(=O)[C@H](Cc2c[nH]c3ccccc23)NC(=O)[C@H](Cc2ccc(O)cc2)NC(=O)[C@H](C(C)C)NC1=O)[C@@H](C)O [compound 126] (Ac-ETF[R8]VYWAQL[S5]SVA-NH2; staple 4-11) | 1 | 1 | 1 | 1 | 1 | 6 | 30 | > 30 | 
CC(=O)N[C@@H](CC(C)C)C(=O)N[C@H](C(=O)N[C@@H](Cc1ccccc1)C(=O)N[C@]1(C)CCCCCCC=CCCC[C@@](C)(C(=O)N[C@@H](CO)C(=O)N[C@@H](C)C(=O)N[C@@H](C)C(N)=O)NC(=O)[C@H](CC2CCCCC2)NC(=O)[C@H](CCC(N)=O)NC(=O)[C@H](C)NC(=O)[C@H](Cc2c[nH]c3ccccc23)NC(=O)[C@H](Cc2ccc(O)cc2)NC(=O)[C@H](CCC(=O)O)NC1=O)[C@@H](C)O (single isomer, unassigned) [compound 148] | 0 | −1 | 0 | 1 | 11 | 23 | 31 | 15 to 30 | 
CC(=O)N[C@@H](CC(C)C)C(=O)N[C@H](C(=O)N[C@@H](Cc1ccccc1)C(=O)N[C@]1(C)CCCCCCC=CCCC[C@@](C)(C(=O)N[C@@H](CO)C(=O)N[C@@H](Cc2c[nH]c3ccccc23)C(=O)N[C@@H](C)C(N)=O)NC(=O)[C@H](CC(C)C)NC(=O)[C@H](CCC(N)=O)NC(=O)[C@H](C)NC(=O)[C@H](Cc2c[nH]c3ccccc23)NC(=O)[C@H](Cc2ccc(O)cc2)NC(=O)[C@H](C)NC1=O)[C@@H](C)O (single isomer, unassigned) [compound 120] | 0 | 0 | 6 | 2 | 11 | 20 | 30 | < 5 | 
CC(=O)N[C@@H](CCC(=O)O)C(=O)N[C@H](C(=O)N[C@@H](Cc1ccccc1)C(=O)N[C@]1(C)CCCCCCC=CCCC[C@@](C)(C(=O)N[C@@H](CO)C(=O)N[C@@H](C)C(=O)N[C@@H](C)C(N)=O)NC(=O)[C@H](CC(C)C)NC(=O)[C@H](CCC(N)=O)NC(=O)[C@H](C)NC(=O)[C@H](Cc2c[nH]c3ccccc23)NC(=O)[C@H](Cc2ccc(O)cc2)NC(=O)[C@H](CCC(=O)O)NC1=O)[C@@H](C)O [compound 161] (Ac-ETF[R8]EYWAQL[S5]SAA-NH2; staple 4-11) | 1 | −1 | 0 | 2 | 8 | 14 | 22 | > 30 | 
CC(=O)N[C@@H](CC(C)C)C(=O)N[C@H](C(=O)N[C@@H](Cc1ccccc1)C(=O)N[C@]1(C)CCCCCCC=CCCC[C@@](C)(C(=O)N[C@@H](CO)C(=O)N[C@@H](C)C(=O)N[C@@H](CO)C(N)=O)NC(=O)[C@H](CC(C)C)NC(=O)[C@H](CCC(N)=O)NC(=O)[C@H](C)NC(=O)[C@H](Cc2c[nH]c3ccccc23)NC(=O)[C@H](Cc2ccc(O)cc2)NC(=O)[C@H](C)NC1=O)[C@@H](C)O [compound 122] (Ac-LTF[R8]AYWAQL[S5]SAS-NH2; staple 4-11) | 1 | 0 | 6 | 1 | 2 | 15 | 30 | 5 to 15 | 
CC(=O)N[C@@H](CC(C)C)C(=O)N[C@H](C(=O)N[C@@H](Cc1ccccc1)C(=O)N[C@]1(C)CCCCCC/C=C/CCC[C@@](C)(C(=O)N[C@@H](CO)C(=O)N[C@@H](C)C(=O)N[C@@H](C)C(N)=O)NC(=O)[C@H](CC(C)C)NC(=O)[C@H](CCC(N)=O)NC(=O)[C@H](C)NC(=O)[C@H](Cc2c[nH]c3cc(Cl)ccc23)NC(=O)[C@H](Cc2ccc(O)cc2)NC(=O)[C@H](C)NC1=O)[C@@H](C)O [compound 99] (Ac-LTF[R8]AY[Trp(6-Cl)]AQL[S5]SAA-NH2; staple (E) 4-11) | 1.5 | 2 | 3.5 | 1 | 7 | 31 | 33 | < 5 | 
CC(=O)N[C@@H](CC(C)C)C(=O)N[C@H](C(=O)N[C@@H](Cc1ccccc1)C(=O)N[C@]1(C)CCCCCCC=CCCC[C@@](C)(C(=O)N[C@@H](C)C(=O)N[C@@H](C)C(=O)N[C@@H](C)C(=O)N[C@@H](C)C(=O)N[C@@H](C)C(=O)N[C@H](C)C(N)=O)NC(=O)[C@H](CC(C)C)NC(=O)[C@H](CCC(N)=O)NC(=O)[C@H](C)NC(=O)[C@H](Cc2c[nH]c3cc(Cl)ccc23)NC(=O)[C@H](Cc2ccc(O)cc2)NC(=O)[C@H](C)NC1=O)[C@@H](C)O (single isomer, unassigned) [compound 338] | 0 | 0 | 1 | 1 | 23 | 20 | 29 | < 5 | 5
CC(=O)N[C@@H](CC(C)C)C(=O)N[C@H](C(=O)N[C@@H](Cc1ccccc1)C(=O)N[C@]1(C)CCCCCC/C=C/CCC[C@@](C)(C(=O)N[C@@H](CO)C(=O)N[C@@H](C)C(=O)N[C@@H](C)C(N)=O)NC(=O)[C@H](CCC(C)C)NC(=O)[C@H](CCC(N)=O)NC(=O)[C@H](C)NC(=O)[C@H](Cc2c[nH]c3ccccc23)NC(=O)[C@H](Cc2ccc(O)cc2)NC(=O)[C@H](C)NC1=O)[C@@H](C)O [compound 115] (Ac-LTF[R8]AYWAQ[hLeu][S5]SAA-NH2; staple (E) 4-11) | 0 | −1 | 6 | 1 | 10 | 26 | 32 | 5 to 15 | 
